Measured values published in patent US8697840B2, “Peptide inhibition of lung epithelial apoptosis and pulmonary fibrosis” (Board of Regents, The University of Texas System, priority 2008, dated 2014).

Legend:
PAI-1 [1] = test: IHC of lung tissue of bleo-treated mice: PAI-1; format: in vivo, mouse; details: bleomycin-treated mice, 24-72 h
Method: (§1) For immunohistochemical (IHC) analysis, lungs were inflated at constant pressure of 20 cm H2O, removed and fixed overnight in 2% paraformaldehyde in PBS. Tissue was dehydrated by passage through a standard alcohol series and was embedded in paraffin. 5 μm sections were deparaffinized with xylene followed by incubation with 100% and 95% alcohol. After 10 min of antigen retrieval, the slides were incubated with H2O2 for 30 min to quench endogenous peroxidase. Slides were incubated overnight with the respective antibodies in PBS containing 0.1% Tween 20 and further processed using Lab vision kit (Freemont Calif.).
(§2) An IHC study was conducted to analyze lung tissue for expression p53, uPA, uPAR, PAI-1 and cleaved caspase 3 (Table 2). […] These IHC observations were confirmed by Western blotting (see Example II and FIG. 5).

uPAR [2] = test: IHC of lung tissue of bleo-treated mice: uPAR; format: in vivo, mouse; details: bleomycin-treated mice, 48-72 h
Method: as §1, §2

cleaved PARP = test: IHC of lung sections of bleo-treated mice: cleaved PARP; format: in vivo, mouse; details: peptide 4.5 μM i.p. days 1 and 2, bleomycin 40 μg/50 μl intranasal day 2; up to 72 h
Method: On day 2 mice were treated with bleomycin (40 μg/50μl) by intranasal instillation. Mice were sacrificed 24, 48 and 72 h after later, lungs were excised, inflated and fixed in formalin, and […] sections were analyzed by immunohistochemistry (IHC) using an antibody specific for cleaved PARP.
as §1

[3] = test system: bleo-induced collagen deposition in mouse lung; test: Mason's Trichrome stain for collagen of lung sections of bleo-treated mice; format: in vivo; details: for Collagen content in lung section: bleo-treated animals, peptide one day after bleo, day 21, trichrome stain
Method: FIG. 13 is a set of photomicrographs showing that PP-1 prevents bleo-induced collagen deposition in mouse lung. Mice were treated with bleo (50 μg/ml) by intranasal instillation followed by treatment with PP-1 (10 nM) or control peptide CP-1 on day 2. Lungs were excised on day 21, inflated and fixed in formalin, a sectioned into […] sections which were subjected to Mason's Trichrome stain (a three-color stain that stains cell nuclei red, collagen green or blue, and cytoplasm red). Blue staining indicates collagen deposition in bleo-treated lung sections.
FIGS. 14A & 14B is a series of photomicrographs of lung epithelial tissue stained with Mason's trichrome stain for collagen (FIG. 10A) and by TUNEL staining for apoptosis (FIG. 10B). Bleo-treated animals were instilled with either PP-1, PP-2 or control peptide CP-1 one day after bleo treatment, The lungs were removed on day 21, subjected to the staining procedures and examined for collagen accumulation or apoptosis.
Collagen deposition in mouse lung after bleo treatment was investigated. Mice were treated with bleo (50 μg/ml) by intranasal instillation followed by treatment with PP-1 (10 nM) (designated as PP in Figure) or control peptide CP-1 (designated CP in FIG. 13) on day 2. Lungs were excised on day 21, inflated and fixed in formalin, a sectioned into […] sections which were subjected to Mason's Trichrome stain (a three-color stain that stains cell nuclei red, collagen green or blue, and cytoplasm red).
A comparison was made of normal and bleo-treated lung, and the effect of PP-1 and PP-2 on the bleo-treated lungs were examined. Animals were treated with bleo and peptides as above. Lung tissue was removed at day 21 and stained with Mason's trichrome stain for collagen and subjected to TUNEL staining for apoptosis.

[4] = test system: bleo-induced lung injury in the mouse; test: Lung desmosine (elastin) after bleo-induced lung injury; format: in vivo; details: 50 μg Bleo intranasally; 10 mM peptide in 0.1 ml osmotic pump i.p. one day later; lungs after 21 days
Method: FIGS. 10A and 10B are graphs showing the effect of PP-1 on fibrosis following bleo-induced lung injury in the mouse. […] 24 h after bleo, 0.1 ml osmotic pump filled with 10 mM PP-1 (designated “Bleo+PP” in Figures) or CP1 control scrambled peptide (“Bleo+CP1”) were implanted intraperitoneally. Lungs were harvested after 21 days, homogenized and the homogenates were subjected to the analysis of hydroxyproline or desmosine levels.
Lungs were harvested after 21 days, homogenized and the homogenates were subjected to the analysis of hydroxyproline as above (FIG. 10A) or desmosine (FIG. 10B). The effect of PP-1 on fibrosis in bleo-induced mouse lung injury was evaluated. Mice were treated with saline or 50 μg Bleo intranasally were implanted one day later with, 0.1 ml osmotic pumps i.p. The pumps were filled with either 10 mM (2.92 mg/100 μl) PP-1 (“Bleo+PP-1”) or control scrambled peptide CP-1 (“Bleo+CP-1”).

uPA = test: IHC of lung tissue of bleo-treated mice: uPA; format: in vivo, mouse; details: bleomycin-treated mice, 48-72 h
Method: as §1, §2

p53 [5] = test: IHC of lung tissue of bleo-treated mice: p53; format: in vivo, mouse; details: bleomycin-treated mice, 24-72 h
Method: as §1, §2

[6] = test system: bleo-induced DNA fragmentation; test: DNA fragmentation of genomic DNA from mouse lung extracts; format: in vivo; details: i.p. 0.1 ml osmotic minipump, 10 mM peptide, one day after intranasal bleo; lungs after 16 days
Method: Alternatively, PP-1 or CP-1 were administered in a continuous manner by i.p. implantation of an 0.1 ml osmotic minipump filled with PP-1 or CP-1 (10 mM or 2.92 mg/100 μl) one day after intranasal instillation of bleo. Lungs were harvested after 16 days. Total dose administered over that period was about 147 mg/kg. The apoptotic scores were calculated by counting the number of apoptotic cells in each field. Genomic DNA was isolated from saline, bleo, Bleo+PP-1 or Bleo+CP-1 mouse lung extracts, and subjected to DNA fragmentation.

PAI-1 [7] = test: Western blot of bleo-treated Beas2B cells: PAI-1; format: cell-based, human; details: 40 μg/ml bleo, 28 h
Method: (§3) FIG. 4 depicts a set of Western blots showing the show the effect of bleo on uPA, uPAR, PAI-1 and p53 expression in LEC in vitro.
(§4) Beas2B cells were treated for 28 h with PBS or 40 μg/ml of bleo in the presence or absence of uPA or its ATF (20 nM), anti-β1-integrin monoclonal antibody (B1), (which activates β1-integrin by clustering), mouse IgG (mIgG), uPA+B1, uPA+mIgG, PP-1 (10 nM), or scrambled control peptide CP-1 (10 nM) at 37° C. In the case of uPA and PAI-1, the full length uPA was substituted with ATF, because uPA-mediated autoinduction or induction of PAI-1 occurs via the interaction of the ATF with uPAR (3-4). […] The membrane proteins were subjected to Western blotting using anti-uPAR antibody.

p53 [8] = test: Western blot of bleo-treated Beas2B cells: p53; format: cell-based, human; details: 40 μg/ml bleo, 28 h
Method: as §3, §4

uPAR [9] = test: Western blot of bleo-treated Beas2B cells: uPAR; format: cell-based, human; details: 40 μg/ml bleo, 28 h
Method: as §3, §4

Row | Substance | PAI-1 expression in lung tissue (IHC) (PAI-1 [1]) | uPAR levels in lung tissue (IHC) (uPAR [2]) | cleavage (degradation) of PARP in lung (cleaved PARP) | bleo-induced collagen deposition (Mason's Trichrome stain) ([3]; bleo 50 μg/ml intranasal, PP-1 (10 nM) on day 2, lungs day 21) | Collagen content in lung section [3] | development of bleo-induced lung fibrosis ([3]; conclusion from Table 3, day 21) | lung desmosine levels [4] | uPA levels in lung tissue (IHC) (uPA) | p53 expression in lung tissue (IHC) (p53 [5]) | bleo-induced DNA fragmentation [6] | PAI-1 expression (PAI-1 [7]) | p53 expression (p53 [8]) | uPAR expression (uPAR [9])
1 | DGIWKASFTTFTVTKYWFYR [PP-1, residues 82-101 of human Cav-1, the caveolin-1 scaffolding domain] | reduced this PAI-1 expression | reversed this suppression | reversed such PARP degradation | prevented bleo-induced collagen deposition | Normal | prevented the development of bleo-induced lung fibrosis | significantly reduced, to normal levels | reversed this suppression | blocked bleomycin induced p53 expression | protect against bleo-induced LEC apoptosis and DNA fragmentation | – | – | –
2 | Bleomycin | PAI-1 expression was also increased in bleomycin-treated mice beginning 24 h after treatment | uPA and uPAR levels fell between 48-72 h of bleomycin exposure | induced cleavage of PARP after 72 h of exposure | – | Increased | – | significant increase in lung hydroxyproline or desmosine levels | uPA and uPAR levels fell between 48-72 h of bleomycin exposure | induced p53 expression beginning at 48 h and increasing up to 72 h | – | induced | induced | suppressing
